From ChEMBL document CHEMBL1134308, “Novel tropane-based irreversible ligands for the dopamine transporter” (J Med Chem, 2001)

biological target: Sodium-dependent dopamine transporter (Rattus norvegicus, UniProt P23977); assay: Displacement of [3H]WIN-35 428 binding at dopamine transporter (DAT) in rat caudate putamen; assay type: tissue-based
Sequence (P23977 whole entry): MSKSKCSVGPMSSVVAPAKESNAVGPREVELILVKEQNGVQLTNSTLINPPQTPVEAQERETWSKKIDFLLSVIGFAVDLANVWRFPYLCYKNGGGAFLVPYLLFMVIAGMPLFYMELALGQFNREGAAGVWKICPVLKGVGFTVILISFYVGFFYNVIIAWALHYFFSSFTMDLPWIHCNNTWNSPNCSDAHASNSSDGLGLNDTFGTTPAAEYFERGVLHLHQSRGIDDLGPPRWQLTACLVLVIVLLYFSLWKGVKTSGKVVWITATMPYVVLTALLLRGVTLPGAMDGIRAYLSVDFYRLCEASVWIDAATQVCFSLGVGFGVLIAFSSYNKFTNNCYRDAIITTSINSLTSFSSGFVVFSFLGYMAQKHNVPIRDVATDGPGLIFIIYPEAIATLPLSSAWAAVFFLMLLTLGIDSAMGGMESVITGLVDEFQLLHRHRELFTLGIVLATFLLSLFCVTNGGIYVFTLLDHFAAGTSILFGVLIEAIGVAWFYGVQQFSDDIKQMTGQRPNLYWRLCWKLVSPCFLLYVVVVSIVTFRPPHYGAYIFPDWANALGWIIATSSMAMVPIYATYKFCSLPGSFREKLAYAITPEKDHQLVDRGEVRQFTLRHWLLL

`COC(=O)C1C(c2ccc(Cl)cc2)CC2CCC1N2CCCCc1ccc(N=C=S)cc1` (stereo unspecified) was tested. Which Ki did it give?
Its Ki is 31.5 nM.

Which Ki does the source give for `[N-]=[N+]=Nc1ccc(CCCN2[C@@H]3CC[C@H]2C[C@@H](OC(c2ccc(F)cc2)c2ccc(F)cc2)C3)cc1I` here?
Its Ki is 284 nM.

For `CN1C2CCC1C(C(=O)OCCc1ccc(N=[N+]=[N-])c(I)c1)C(c1ccc(Cl)cc1)C2` (stereo unspecified), which Ki is on record?
The Ki was 14.5 nM.

How did the Ki turn out when `COC(=O)C1C(c2ccc(Cl)cc2)CC2CCC1N2CCCCc1ccc(N=[N+]=[N-])c(I)c1` (stereo unspecified) was run?
Its Ki is 33 nM.

`Fc1ccc(C(O[C@H]2C[C@H]3CC[C@@H](C2)N3CCCc2ccc(N=C=S)cc2)c2ccc(F)cc2)cc1` was tested. Which Ki did it give?
Its Ki is 611 nM.

`Fc1ccc(C(O[C@H]2C[C@H]3CC[C@@H](C2)N3CCCCc2ccc(N=C=S)cc2)c2ccc(F)cc2)cc1` was tested. Which Ki did it give?
Its Ki is 420 nM.
